Laboratory results published in US20250066328A1, “PARP7 INHIBITORS” (Gilead Sciences, Inc., priority 2023, published 2025).
pEC50: −log10 of the molar value.

test system: STAT1 (phosphorylated at Tyr701) in NCI-H1373 cells; assay: Phospho-STAT1 (Tyr701) LANCE Ultra TR-FRET detection assay in NCI-H1373 cells; type: cell-based; conditions: Homo sapiens, NCI-H1373, 48 h, 48 hours incubation, induction of pSTAT1, normalized to 10 uM positive control and DMSO, 4-parameter fit, read-out: NH1373 pSTAT1 EC50
Description: Phospho-STAT1 (Tyr701 LANCE Ultra TR-FRET Detection Assay
LANCE Ultra phospho-STAT1 (Tyr701) kits are designed for the detection of phosphorylated STAT1 in cell lysates using a simple, homogeneous LANCE Ultra sandwich assay (Cat. #TRF4028M). This assay is intended for assessing compound induction of endogenous levels of cellular STAT1 (phosphorylated at Tyr701) in NCI-H1373 cells. The NCI-H1373 cells are cultured in RPMI 1640 media containing 10% heat inactivated FBS, GlutaMAX, 1% Penicillin-Streptomycin. An Echo acoustic liquid handler is used to transfer 60 nanoliters of compound dilutions using the Echo Qualified, 384-well polypropylene microplate clear flat bottom source plates into a Greiner (#781080) cell culture microplate. NCI-H1373 cells are seeded into these compound-spotted culture plates at 30,000 cells/well in a 60 uL volume in growth media. The plates are incubated in a 5% CO2 humidified incubator at 37° C. for 48 hours. […] Briefly, […] of supplemented lysis buffer is added to each well and allowed to shake for 1 hour at 400 rpm. Next, 5 ul of remixed antibody solutions (vol/vol) prepared in detection buffer are added to each well and allowed to incubate at room temperature overnight. After spinning the plate down at 300 rpm for 1 min, the plate is read on an EnVision plate reader set up for Eu^3+ Cryptate and fluorescence emission is measured at two different wavelengths (665 nm and 620 nm). The HTRF ratio is then calculated ([…]) for each well to determine the amount of pSTAT1 in the cell lysate, and the data is then normalized to 10 uM (S)-5-((1-(3-oxo-3-(4-(5-(trifluoromethyl)pyrimidin-2-yl)piperazin-1-yl)propoxy)propan-2-yl)amino)-4-(trifluoromethyl)pyridazin-3(2H)-one positive and DMSO negative controls. The values were then plotted as a function of compound concentration and a 4-parameter fit was applied to derive the EC50 values.

Row | SMILES | pEC50
1 | CC(F)(F)c1cnc(-c2cc3ccn(CC(F)CC(COC(F)F)Nc4cn[nH]c(=O)c4C(F)(F)F)c(=O)c3cc2F)nc1 (stereo not drawn) [Example 131] | 8.27
2 | C[C@@H](C[C@@H](F)Cn1cnc2cc(-c3ncc(C(F)F)cn3)c(F)cc2c1=O)Nc1cn[nH]c(=O)c1C(F)(F)F [Example 70] | 8.48
3 | C[C@@H](C[C@H](F)Cn1cc(F)c2cc(-c3ncc(C(F)(F)F)cn3)c(F)cc2c1=O)Oc1cn[nH]c(=O)c1C(F)(F)F [Example 65] | 8.55
4 | C[C@@H](CC(O)Cn1ccc2cc(-c3nc4ccccn4n3)c(F)cc2c1=O)Nc1cn[nH]c(=O)c1C(F)(F)F (stereo partly drawn) [Example 21, 6-([1,2,4]triazolo[1,5-a]pyridin-2-yl)-7-fluoro-2-((4S)-2-hydroxy-4-((6-oxo-5-(trifluoromethyl)-1,6-dihydropyridazin-4-yl)amino)pentyl)isoquinolin-1(2H)-one] | 7.88
5 | C[C@@H](C[C@@H](F)Cn1cc(F)c2cc(-c3ncc(C(F)F)c(N)n3)c(F)cc2c1=O)Nc1cn[nH]c(=O)c1C(F)(F)F [Example 24, 6-(4-amino-5-(difluoromethyl)pyrimidin-2-yl)-4,7-difluoro-2-((2R,4S)-2-fluoro-4-((6-oxo-5-(trifluoromethyl)-1,6-dihydropyridazin-4-yl)amino)pentyl)isoquinolin-1(2H)-one] | 8.62
6 | COc1cnc(-c2cc3c(F)cn(C[C@H](F)C[C@H](C)Oc4cn[nH]c(=O)c4C(F)(F)F)c(=O)c3cc2F)nc1 [Example 53] | 6.69
7 | C[C@@H](C[C@@H](F)Cn1ccc2cc(-c3ncc(C(F)F)cn3)c(F)c(F)c2c1=O)Nc1cn[nH]c(=O)c1C(F)(F)F [Example 100] | 8.98
8 | CC(C)(O)c1cnc(-c2cc3ccn(CCC[C@H](COC(F)F)Oc4cn[nH]c(=O)c4C(F)(F)F)c(=O)c3cc2F)nc1 (single isomer, unassigned) [Example 35] | 7.69
9 | COc1cnc(-c2cc3c(F)cn(C[C@@H](F)C[C@H](C)Oc4cn[nH]c(=O)c4C(F)(F)F)c(=O)c3cc2F)nc1 [Example 63] | 8.69
10 | C[C@@H](C[C@@H](F)Cn1ccc2cc(-c3ncc(C(F)F)cn3)c(F)c(F)c2c1=O)Oc1cn[nH]c(=O)c1C(F)(F)F [Example 50] | 9.34
11 | C[C@@H](C[C@@H](F)Cn1ccc2cc(-c3ncc([C@](C)(O)C(F)F)cn3)c(F)cc2c1=O)Nc1cn[nH]c(=O)c1C(F)(F)F [Example 87] | 8.27
12 | C[C@@H](C[C@@H](F)CN1CCc2cc(-c3ncc(C(F)(F)F)cn3)c(F)cc2C1=O)Nc1cn[nH]c(=O)c1C(F)(F)F [Example 132, 7-fluoro-2-[(2R,4S)-2-fluoro-4-[[6-oxo-5-(trifluoromethyl)-1H-pyridazin-4-yl]amino]pentyl]-6-[5-(trifluoromethyl)pyrimidin-2-yl]-3,4-dihydroisoquinolin-1-one] | 8.57
13 | C[C@@H](C[C@@H](F)Cn1ccc2cc(-c3ncc(C(C)(C)C)cn3)c(F)cc2c1=O)Nc1cn[nH]c(=O)c1C(F)(F)F [Example 88] | 8.89
14 | C[C@@H](C[C@@H](F)Cn1ccc2cc(-c3ncc(OCC#N)cn3)c(F)cc2c1=O)Nc1cn[nH]c(=O)c1C(F)(F)F [Example 78] | 6.72
15 | C[C@@H](C[C@@H](F)Cn1cc(F)c2cc(-c3ncc(C(C)(C)O)cn3)c(F)cc2c1=O)Nc1cn[nH]c(=O)c1C(F)(F)F [Example 26] | 8.42
16 | O=c1[nH]ncc(N[C@@H](CO)C[C@@H](F)Cn2ccc3cc(-c4ncc(Cl)cn4)c(F)cc3c2=O)c1C(F)(F)F [Example 124] | 7.95
17 | COc1cnc(-c2cc3ccn(C[C@@H](F)C[C@H](C)Nc4cn[nH]c(=O)c4C(F)(F)F)c(=O)c3cc2F)nc1 (single isomer, unassigned) [Example 7] | 6.82
18 | C[C@@H](C[C@@H](F)Cn1ccc2cc(-c3ncc(C(F)(F)F)cn3)c(F)cc2c1=O)Nc1cn[nH]c(=O)c1C(F)(F)F [Example 2] | 9.02
